Assays:
[1] = system: Ang II induced cADPR production in rat cardiomyocytes; assay: Ang II-induced [cADPR]i in cardiomyocytes; format: cell-based; details: pretreatment
Experimental: [cADPR]i was measured using a cyclic enzymatic assay as described previously [Graeff et al., Biochem. J. (2002)361:379-84]. Aplysia californica ADPR-cyclase was purified from […] according to the method described [Lee et al., Cell Regul. (1991)2:203-9]. Briefly, MMCs were treated with 0.3 ml of 0.6 M perchloric acid under sonication after Ang II treatment. Precipitates were removed by centrifugation at 20,000×g for 10 min. […] After centrifugation for 10 min at 1500×g, the aqueous layer was collected and neutralized with 20 mM sodium phosphate (pH 8). To remove all contaminating nucleotides, the samples were incubated with the following hydrolytic enzymes overnight at 37° C.: 0.44 unit/ml nucleotide pyrophosphatase, 12.5 units/ml alkaline phosphatase, 0.0625 unit/ml NADase, and 2.5 mM MgCl2 in 20 mM sodium phosphate buffer (pH 8.0). Enzymes were removed by filtration using Centricon-3 filters. […] An increase in the resorufin fluorescence was measured at 544 nm excitation and 590 nm emission using a fluorescence plate reader (Molecular Devices Corp., Spectra-Max GEMINI). […] Measurement of [cADPR]i in cardiomyocytes were determined as described above examples 5. […]

[2] = system: Ang II induced [Ca^2+]i increase in rat cardiomyocytes; assay: Ang II-mediated [Ca2+]i increase in cardiomyocytes; format: cell-based; details: pretreatment with 1 mM; sustained but not initial Ca2+
Experimental: Cardiomyocytes were isolated from Sprague-Dawley rats, weighing 210-240 g, by the method with a slight modification [Xie et al., Biochem. Biophys. Res. Commun. (2005)330:1290-8]. Rat hearts were rapidly excised, cannulated, and subjected to retrograde perfusion on a Langendorff apparatus at 37° C. with Ca^2+-free Krebs-Hanseleit (KH) buffer (10 mM HEPES, 118 mM NaCl, 4.7 mM KCl, 1.2 mM MgSO4, 1.2 mM KH2PO4, 25 mM NaHCO3, 10 mM pyruvate, 11 mM glucose, and […], pH 7.3) for 5 min and then with KH buffer containing 5 mM taurine, 0.075% collagenase Type II and 0.08 mg/l protease type XTV for 7-15 min and washed with KH buffer containing 0.2 mM Ca^2+. The left ventricle was removed, chopped into small pieces and further digested in a glass conical flask at 37° C. for 10 min with shaking. The undigested tissues were removed through a […] nylon sheet. […] Isolated myocytes were pelleted by centrifugation at 60×g for 2 min at room temperature and resuspended in a stabilizing buffer (pH, 7.4) containing 20 mM HEPES, 137 mM NaCl, 4.9 mM KCl, 1.2 mM MgSO4, 15 mM glucose, and 10 mM 2,3-butanedione monoxime (BDM). […] Changes in [Ca^2+]i in cardiomyocytes were determined at 488 nm excitation/530 nm emission by air-cooled argon laser system. The emitted fluorescence at 530 nm was collected using a photomultiplier. […]

[3] = system: ADPR-cyclase purified partially from rat spleen; assay: ADPR-cyclase activity assay, spleen enzyme; format: biochemical; design: dose or concentration left out as unconfirmed
Experimental: (§1) FIGS. 1A and 1B show the inhibition of rat kidney ADPR-cyclase that was incubated with […] NGD^+ or e-NAD^+ in the presence of various concentrations of 4,4′-dihydrioxyazobenzene (DHAB) at 37° C. for 10 min and effects of DHAB on human CD38, rat brain, heart, spleen, and kidney ADPR-cyclase. FIGS. 1A and 1B are referred to as FIG. 1 herein.
(§2) Specific ADPR-cyclase activity was determined by measuring cyclic GDP-ribose (cGDPR) or etheno-ADP-ribose (e-cADPR) fluorometrically using NGD^+ or e-NAD^+ as a substrate [Greaff et al., Biochem. J. (2002)361:379-84]. Samples were incubated in the presence […] NGD^+ or e-NAD^+ with and without an appropriate agent in an assay buffer (25 mM HEPES, pH 7.4, 100 mM NaCl, and 0.1% Triton X-100) in a […]. The reaction mixture was incubated at 37° C. for 10 min. The reaction was stopped by adding […] trichloroacetic acid (10%). […] Fluorescence of cGDPR or e-ADPR in the solution was determined at excitation/emission wavelengths of 297/410 nm (HITACHI F-2000 fluorescence spectrophotometer). cADPR-hydrolase activity was determined by incubating cADPR with ADPR-cyclase or CD38 at 37° C. for 20 min. Hydrolysis of cADPR was analyzed by high performance liquid chromatography as described (White et al., 2000). […]

[4] = system: ADPR-cyclase purified partially from rat brain; assay: ADPR-cyclase activity assay, brain enzyme; format: biochemical; design: dose or concentration left out as unconfirmed
Experimental: as §1, §2

[5] = system: ADPR-cyclase purified partially from rat heart; assay: ADPR-cyclase activity assay, heart enzyme; format: biochemical; design: dose or concentration left out as unconfirmed
Experimental: as §1, §2

SMILES	effect on Ang II-mediated [cADPR]i [1]	effect on Ang II-evoked sustained Ca2+ increase [2]	sensitivity of enzyme activity to compound [3]	sensitivity of enzyme activity to compound [4]	sensitivity of enzyme activity to compound [5]
Oc1ccccc1/N=N/c1ccccc1O [2,2′-DHAB, 2,2′-Dihydroxyazobenzene]	inhibited	significantly blocked	–	–	–
Oc1ccc(N=Nc2ccc(O)cc2)cc1 [4,4′-DHAB, 4,4′-Dihydroxyazobenzene]	–	–	insensitive	insensitive	insensitive

Source: patent US8314082B2, “Stilbene derivatives for ADP-ribosyl cyclase inhibitors” (Industrial Cooperation Foundation Chonbuk National …, priority 2006, dated 2012)
